# According to article PMC8394784, “Analogs of a Natural Peptaibol Exert Anticancer Activity in Both Cisplatin- and Doxorubicin-Resistant Cells and in Multicellular Tumor Spheroids” (International Journal of Molecular Sciences, 2021):
# Experiments:
# [1] = system: A2780; assay: cells; details: A2780, 24 h
# Procedure: (§1) OvCa cells and fibroblasts were seeded in 96 well (10.0 × 10^3) the day before treatment to allow cell adherence. […] Half maximal inhibitory concentrations (IC50) were calculated using CalcuSyn software, v2.1 (Biosoft, Ferguson, MO, USA). Fold resistance (FR) was calculated as the ratio of the IC50 of drug-resistant cell line (KM-H2dx, HDLM-2dx, and A2780cis) to that of the respective parental cell line (KM-H2, HDLM-2, and A2780).
# [2] = system: HDLM-2; assay: cells; details: HDLM-2, 24 h
# Procedure: as §1
# [3] = system: KM-H2; assay: cells; details: KM-H2, 24 h
# Procedure: as §1
# [4] = system: L-1236; assay: cells; details: L-1236, 24 h
# Procedure: as §1
# [5] = system: L-428; assay: cells; details: L-428, 24 h
# Procedure: as §1
# [6] = system: OVCAR5; assay: cells
# Procedure: as §1
# [7] = system: SKOV3; assay: cells
# Procedure: as §1
# [8] = system: A2780cis (cisplatin-resistant clone of A2780); assay: cells; details: for IC50: A2780cis, 24 h; for fold resistance (FR): ratio IC50 A2780cis / IC50 A2780
# Procedure: (§2) Authenticated cHL-derived cell lines L-1236, L-428, KM-H2, and HDLM-2 were from DSMZ (Braunschweig, Germany). Doxorubicin-resistant KM-H2dx and HDLM-2dx cells were developed in our laboratory by continuous exposure of KM-H2 and HDLM-2 cells to 35 nM doxorubicin. HDLM-2dx and KM-H2dx cells were maintained in doxorubicin and cultured without the drug 72 h before use. All cell lines are here collectively called “cHL cells”. Authenticated OvCa cell lines A2780 and A2780cis were from Sigma-Aldrich, (Milano, Italy) SKOV3 (HTB-77) were obtained from the American Type Culture Collection (ATCC), OVCAR5 (NIH) were provided by Dr. Baldassarre (CRO, Aviano, Italy). A2780cis cells were maintained in 1 µM cisplatin and cultured without the drug for 72 h before use. […] Peripheral blood mononuclear cells (PBMCs) were obtained from healthy donor blood by density gradient centrifugation on a Ficoll-Paque PLUS (GE Healthcare); they were washed twice with PBS before use and cultured in RPMI-1640 medium containing 10% fetal bovine serum. Human dermal fibroblasts, a generous gift of Dr. Capuano [44], were maintained in Dulbecco′s Modified Eagle′s Medium (DMEM) high glucose (Gibco) plus 10% fetal bovine serum.
# as §1
# [9] = system: HDLM-2dx (doxorubicin-resistant clone of HDLM-2); assay: cells; details: for fold resistance (FR): ratio IC50 HDLM-2dx / IC50 HDLM-2
# Procedure: as §2, §1
# [10] = system: KM-H2dx (doxorubicin-resistant clone of KM-H2); assay: cells; details: for fold resistance (FR): ratio IC50 KM-H2dx / IC50 KM-H2
# Procedure: as §2, §1
# [11] = system: A2780, A2780cis, and KM-H2 cells; type: cell-based, human; details: 24 h
# Procedure: Supplemental Figure S6. Cytotoxic activity of K6-FITC. A2780, A2780cis, and KM-H2 cells were cultured with K6-FITC. After 24 hours cell viability was evaluated by MTT assay for A2780 and A2780cis and by MTS assay for KM-H2 cells. Results are mean and SD of three independent experiments. IC50 was calculated using Calcusyn software.
# (1 picture or pasted object on this page, not shown here)
# [12] = system: A2780 and A2780cis; assay: K6-FITC uptake, time-lapse confocal microscopy with PI; type: cell-based, human; details: 30 µM K6-FITC, 37 °C
# Procedure: (§3) The uptake of peptaibols was evaluated by confocal microscopy and flow cytometry using the fluorescent K6-FITC analog. For confocal microscopy, cells were plated onto glass bottom culture dishes and treated with K6-FITC (30 µM) and propidium iodide (PI) 2 µg/mL. K6-FITC uptake was monitored using confocal microscope in time-lapse xyzt acquisition mode (Leica DM IRE2) keeping cells at 37 °C and 5% CO2. To trace peptaibol penetration in spheroids, single four-day-old SKOV3-MCTs were incubated with K6-FITC (20 µM) and images acquired using confocal microscopy.
# [13] = system: KM-H2 cells; assay: as above; type: cell-based, human; details: KM-H2, 30 µM K6-FITC, PI 2 µg/mL, 60 min of incubation, 37 °C
# Procedure: as §3
# [14] = system: SKOV3-MCTSs; assay: K6-FITC penetration in spheroids, confocal microscopy; type: cell-based, human; details: 20 µM K6-FITC, four-day-old single spheroids, confocal time-lapse
# Procedure: as §3
# [15] = system: A2780 and HDLM-2 vs PBMCs and fibroblasts; assay: K6-FITC uptake by flow cytometry, tumor vs normal cells; type: cell-based, human; details: 0.25–2.5 µM K6-FITC, 5, 30 and 120 min, three independent experiments
# Procedure: For flow cytometry, cells were treated with different concentrations of K6-FITC (0–2.5 µM). After 5, 30 and 120 min of incubation, cells were washed and evaluated for green fluorescence intensity by flow cytometry on a BD FACSCanto II flow cytometer. Annexin-V assay: cells were treated with peptaibols for 24 h, then stained for 15 min with FITC AnnexinV (Thermo Fisher Scientific, Monza, Italy) and 7-Amino-Actinomycin D (7AAD) (BD Pharmingen, Milano, Italy) and analyzed using flow cytometry. Data were analyzed using BD FACSDiva v.8.0.1 software (BD Biosciences, Milano, Italy).
# [16] = system: human peripheral blood mononuclear cells (PBMCs); assay: Cytotoxicity in healthy cells, MTS assay; details: 24 h, mean (SD)
# Procedure: (§4) Authenticated cHL-derived cell lines L-1236, L-428, KM-H2, and HDLM-2 were from DSMZ (Braunschweig, Germany). Doxorubicin-resistant KM-H2dx and HDLM-2dx cells were developed in our laboratory by continuous exposure of KM-H2 and HDLM-2 cells to 35 nM doxorubicin. HDLM-2dx and KM-H2dx cells were maintained in doxorubicin and cultured without the drug 72 h before use. All cell lines are here collectively called “cHL cells”. Authenticated OvCa cell lines A2780 and A2780cis were from Sigma-Aldrich, (Milano, Italy) SKOV3 (HTB-77) were obtained from the American Type Culture Collection (ATCC), OVCAR5 (NIH) were provided by Dr. Baldassarre (CRO, Aviano, Italy). A2780cis cells were maintained in 1 µM cisplatin and cultured without the drug for 72 h before use. […]
# as §1
# [17] = system: human fibroblasts; assay: Cytotoxicity in healthy cells, MTT assay; details: healthy human dermal fibroblasts, 24 h, mean (SD)
# Procedure: as §4, §1
# [18] = system: SKOV3-MCTSs; assay: SKOV3 spheroid (MCTS) volume; type: cell-based, human; details: 25 µM, 3 days of treatment, four-day old single spheroids
# Procedure: To obtain the 3 dimensional (3D) SKOV3-MCTSs, cells were cultured in non-adherent conditions on plates coated twice with 20 mg/mL of poly(2-hydroxyethyl methacrylate) (poly-HEMA; Sigma) in 95% ethanol. Single spheroids with defined size were generated by culturing 1.0 × 10^3 SKOV3 cells onto poly-HEMA-coated 96-well for 4 days. Then, single SKOV3-MCTSs were treated with increasing concentrations of peptaibols (0–25 µM). SKOV3-MCTSs size was measured and photographed up to 72 h after treatment initiation using an inverted microscope (Eclipse TS/100, Nikon) with the DS Camera Control Unit DS-L2 photo micrographic system. SKOV3-MCTSs volumes were calculated using the formula: (width^2 × length × 3.14)/6 [47].
# [19] = system: SKOV3-MCTSs; assay: SKOV3 spheroid cell viability, PrestoBlue; type: cell-based, human; details: 24 h treatment
# Text: Multiple SKOV3-MCTSs were obtained by seeding 10.0 × 10^3 cells in non-adherent conditions.
smiles,measurement,setting,value
"N.N.[Cl][Pt][Cl] [Cisplatin, cisplatin]",IC50,"[1]; MTT, mean (SD)",1.3 µM
same,IC50,"[2]; MTS, mean (SD)",1.3 µM
same,IC50,"[3]; MTS, mean (SD)",0.5 µM
same,IC50,"[4]; MTS, mean (SD)",0.8 µM
same,IC50,"[5]; MTS, mean (SD)",0.5 µM
same,IC50,"[6]; OVCAR5, 24 h, MTT, mean (SD)",7.7 µM
same,IC50,"[7]; SKOV3, 24 h, MTT, mean (SD)",7.7 µM
same,IC50,"[8]; MTT, mean (SD)",10.4 µM
same,fold resistance (FR),[8],8
same,IC50,"[9]; HDLM-2dx, 24 h, MTS, mean (SD)",4 µM
same,fold resistance (FR),[9],3.11
same,IC50,"[10]; KM-H2dx, 24 h, MTS, mean (SD)",1.2 µM
same,fold resistance (FR),[10],2.6
COc1cccc2c1C(=O)c1c(O)c3c(c(O)c1C2=O)C[C@@](O)(C(=O)CO)C[C@@H]3O[C@H]1C[C@H](N)[C@H](O)[C@H](C)O1 [Doxorubicin],IC50,[1]; Homo sapiens,0.0204 µM
same,IC50,[2]; Homo sapiens,0.0405 µM
same,IC50,[3]; Homo sapiens,0.0221 µM
same,IC50,[4]; Homo sapiens,0.0464 µM
same,IC50,[5]; Homo sapiens,0.0184 µM
same,IC50,"[6]; Homo sapiens, OVCAR-5, 24 h",0.47 µM
same,IC50,"[7]; Homo sapiens, SK-OV-3, 24 h",0.13 µM
same,IC50,[8]; Homo sapiens,0.116 µM
same,fold resistance (FR),[8],5.6
same,IC50,"[9]; Homo sapiens, HDLM-2, 24 h",0.368 µM
same,fold resistance (FR),[9],9
same,IC50,"[10]; Homo sapiens, KM-H2, 24 h",0.202 µM
same,fold resistance (FR),[10],9
CCCCCCCC(=O)NC(C)(C)C(=O)NCC(=O)N[C@@H](CC(C)C)C(=O)NC(C)(C)C(=O)NCC(=O)N[C@@H](CCCCN)C(=O)N[C@@H](CC(C)C)C(=O)NC(C)(C)C(=O)NCC(=O)N[C@H](C(=O)N[C@@H](CC(C)C)C(=O)NCCNC(=S)Nc1ccc2c(c1)C(=O)OC21c2ccc(O)cc2Oc2cc(O)ccc21)[C@@H](C)CC [K6-FITC],IC50,"[1]; MTT, mean (SD)",24.5 µM
same,IC50,"[3]; MTS, mean (SD)",30 µM
same,IC50,"[8]; MTT, mean (SD)",29 µM
same,IC50,[11],~30 µM
same,uptake,[12],rapidly taken up in both cell lines
same,uptake and PI staining,[13],all cells were double stained
same,penetration into SKOV3-MCTSs,[14],rapidly and deeply penetrated
same,uptake (mean fluorescence intensity) by tumor cells compared with normal cells,[15],in a higher quantity and in a faster way
CCCCCCCC(=O)NC(C)(C)C(=O)NCC(=O)N[C@@H](CC(C)C)C(=O)NC(C)(C)C(=O)NCC(=O)N[C@@H](CCCCN)C(=O)N[C@@H](CC(C)C)C(=O)NC(C)(C)C(=O)NCC(=O)N[C@H](C(=O)N[C@H](CO)CC(C)C)[C@@H](C)CC [K6-Lol],IC50,"[1]; MTT, mean (SD)",7.9 µM
same,IC50,"[2]; MTS, mean (SD)",12.6 µM
same,IC50,"[3]; MTS, mean (SD)",7.5 µM
same,IC50,"[4]; MTS, mean (SD)",11.7 µM
same,IC50,"[5]; MTS, mean (SD)",8.9 µM
same,IC50,"[6]; OVCAR5, 24 h, MTT, mean (SD)",7.5 µM
same,IC50,"[7]; SKOV3, 24 h, MTT, mean (SD)",8.4 µM
same,IC50,"[8]; MTT, mean (SD)",9.1 µM
same,IC50,"[9]; HDLM-2dx, 24 h, MTS, mean (SD)",11.9 µM
same,fold resistance (FR),[9],~1
same,IC50,"[10]; KM-H2dx, 24 h, MTS, mean (SD)",7.2 µM
same,fold resistance (FR),[10],~1
same,IC50,[16],7.1 (0.4) µM
same,IC50,[17],15.0 (1.4) µM
same,SKOV3-MCTS volume,[18],completely eliminated them
same,SKOV3-MCTS cell viability,[19],dose-dependent decrease
